These compounds were tested against T1, human GPR120 (Homo sapiens, UniProt Q5NUL3) (assay: Intracellular Ca2+ assay in human GPR120 stable cell line (FLIPR Calcium 4 dye, Flexstation)). Conditions: % activity at 2.5 µM compared to the maximal activity of the compound of Example 25 at 2.5 µM (=100%); HEK293 cells co-expressing Gqi5.
T1 construct: host or cells: HEK293 cells co-expressing Gqi5
T1 sequence (Q5NUL3 1-361): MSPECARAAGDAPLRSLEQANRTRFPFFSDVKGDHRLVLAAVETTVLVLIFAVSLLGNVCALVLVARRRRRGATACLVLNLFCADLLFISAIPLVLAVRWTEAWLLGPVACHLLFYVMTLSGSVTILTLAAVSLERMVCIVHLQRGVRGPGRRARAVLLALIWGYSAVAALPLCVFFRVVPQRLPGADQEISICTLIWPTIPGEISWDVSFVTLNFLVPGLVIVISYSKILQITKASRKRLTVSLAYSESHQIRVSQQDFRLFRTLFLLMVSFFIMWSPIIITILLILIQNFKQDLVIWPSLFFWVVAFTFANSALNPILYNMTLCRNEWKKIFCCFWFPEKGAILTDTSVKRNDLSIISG
Type: cell-based
Experimental: Human GPR120 stable cell line was purchased from Multispan Inc (26219 Eden Landing Road, Hayward, CA94545). This GPR120 cell line was generated in HEK293 cells co-expressing Gqi5. In this cell line, the Flag epitope tag (DYKDDDDK) was fused to the amino terminus of human GPR120 protein.
The concentration of intracellular Ca^2+ was measured as described below. Human GPR120 cells were plated in 96 well plates (Poly-D-Lysine coated black/clear Plate, Greiner Bio-One) at 70,000 cells per well and cultured overnight in conditions of 37°C and 5% CO2. A Ca^2+ assay dye stock solution was prepared by adding 10 mL of assay buffer (HBSS/20mM HEPES, pH 7.4) to FLIPR Calcium 4 Assay Bulk Kit (Molecular Devices). The 10 mL of Ca^2+ assay dye solution was prepared by further diluting 0.5 mL of Ca^2+ assay dye stock solution with 10 mL of assay buffer. The medium of the cells was removed and immediately 100 µL of the Ca^2+ assay dye solution was dispensed into each well followed by incubation at 37°C and 5% CO2 for 50 minutes to incorporate the Ca^2+ dye into the cells. The cell plate was then placed in the Flexstation (Molecular Devices) for 20 minutes at 37°C. Compounds were dissolved in 100% DMSO and diluted to desired concentrations with assay buffer and placed in the Flexstation simultaneously with the cell plate for 20 minute incubation at 37°C prior to reading. Fluorescence intensity was measured immediately following compound addition (25 µL/well) on the Flexstation at an excitation wavelength of 485 nm and an emission wavelength of 525 with 515 nm auto cutoff. The resulting increase in fluorescence intensities corresponds to increases in intracellular Ca^2+ levels.
Compounds were dissolved in 100% DMSO to a concentration of 20 mM to provide stock solutions. To determine activity against human GPR120, compounds were added with human GPR120 stably expressing cells (described above), at eight desired concentrations ranging from 0.00001 to 20 µM, in 96 well plates and fluorescence intensities were measured for 90 seconds with 2-second intervals. An EC50 value (concentration of the GPR120 agonist where 50% of the agonist's maximal activity is observed) was calculated using the changes (Max-Min) of fluorescence intensity.
To determine percent activity for a tested compound, the fluorescence intensity value obtained at a particular concentration were compared to the maximal fluorescence intensity value obtained for reference compound GW9508 (4-[[(3-phenoxyphenyl)methyl]amino]benzene propanoic acid; British Journal of Pharmacology 2006 148, 619-628) or the compound of Example 25. When GW9508 was used as the reference compound, the maximal activity of GW9508 at 6.7µM was designated as 100% activity. When the compound of Example 25 was used as the reference compound, the maximal activity of the compound of Example 25 at 2.5 µM was designated as 100% activity. Typically, the GW9508 activity reached a maximum at a concentration of approximately 6.7 µM and typically the compound of Example 25 reached a maximum activity at approximately 2.5µM. […]

| Compound | % Activity (Ex. 25 Reference Compound) |
| --- | --- |
| 2-(4-((5-fluoro-3H-spiro[benzofuran-2,1'-cyclopentane]-7-yl)methoxy)phenyl)cyclopropanecarboxylic acid [Example 165] | 158.08% |

Same assay, conditions: % activity at 2.5 µM compared to the maximal activity of the compound of Example 25 at 2.5 µM (=100%); HEK293 cells co-expressing Gqi5; read-out: % Activity (Ex. 25 Reference Compound)

| Compound | activity at 2.5 µM |
| --- | --- |
| CC1(C)Cc2cc(F)cc(CCc3ccc(OCC(=O)O)cc3)c2O1 [Example 70, 2-(4-(2-(5-fluoro-2,2-dimethyl-2,3-dihydrobenzofuran-7-yl)ethyl)phenoxy)acetic acid] | 118% |

Same assay, conditions: HEK293, % activity at 2.5 µM compared to the maximal activity of the compound of Example 25 at 2.5 µM (=100%); HEK293 cells co-expressing Gqi5; read-out: % Activity (Ex. 25 Reference Compound)

| Compound | activity at 2.5 µM |
| --- | --- |
| CC(CCc1ccc(OCc2cc(F)cc3c2OC(C)(C)C3)cc1)C(=O)O (centres unmarked) [Example 171, 4-(4-((5-fluoro-2,2-dimethyl-2,3-dihydrobenzofuran-7-yl)methoxy)phenyl)-2-methylbutanoic acid] | 99% |
| CC1(C)Cc2cc(F)cc(COc3ccc4c(c3)CC[C@H]4CC(=O)O)c2O1 [Example 175, (S)-2-(5-((5-fluoro-2,2-dimethyl-2,3-dihydrobenzofuran-7-yl)methoxy)-2,3-dihydro-1H-inden-1-yl)acetic acid] | 152% |
| CCOC(Cc1cc(F)c(OCc2cc(F)cc3c2OC(C)(C)C3)c(F)c1)C(=O)O (centres unmarked) [Example 69, 3-(3,5-difluoro-4-((5-fluoro-2,2-dimethyl-2,3-dihydrobenzofuran-7-yl)methoxy)phenyl)-2-ethoxypropanoic acid] | 78.5% |
| CC(C)Oc1cc(OCc2cc(Cl)cc3c2OC(C)(C)C3)ccc1CCC(=O)O [Example 116, 3-(4-((5-chloro-2,2-dimethyl-2,3-dihydrobenzofuran-7-yl)methoxy)-2-isopropoxyphenyl)propanoic acid] | 146% |
| CC(C)Oc1cc(OCc2cc(F)cc3c2OC(C)(C)C3)ccc1CCC(=O)O [Example 115, 3-(4-((5-fluoro-2,2-dimethyl-2,3-dihydrobenzofuran-7-yl)methoxy)-2-isopropoxyphenyl)propanoic acid] | 152% |
| [2H]C([2H])(Oc1ccc(CC(C)C(=O)O)cc1F)c1cc(F)cc2c1OC(C)(C)C2 (centres unmarked) [Example 230, 3-(4-(dideuterio(5-fluoro-2,2-dimethyl-2,3-dihydrobenzofuran-7-yl)methoxy)-3-fluorophenyl)-2-methylpropanoic acid] | 86.2% |
| [2H]C([2H])(C(=O)O)C([2H])([2H])c1ccc(OCc2cc(F)cc3c2OC(C)(C)C3)c(F)c1CC [Example 243, 3-(2-ethyl-3-fluoro-4-((5-fluoro-2,2-dimethyl-2,3-dihydrobenzofuran-7-yl)methoxy)phenyl)-2,2,3,3-tetradeuteriopropanoic acid] | 155% |
| CC(Cc1ccc(OCc2ccc(F)c3c2CC(C)(C)O3)cc1)C(=O)O (centres unmarked) [Example 91, 3-(4-((7-fluoro-2,2-dimethyl-2,3-dihydrobenzofuran-4-yl)methoxy)phenyl)-2-methylpropanoic acid] | 121% |
| CC(Cc1ccc(OCc2cc(Cl)cc3c2OC(C)(C)C3=O)c(C(F)(F)F)c1)C(=O)O (centres unmarked) [Example 79, 3-(4-((5-chloro-2,2-dimethyl-3-oxo-2,3-dihydrobenzofuran-7-yl)methoxy)-3-(trifluoromethyl)phenyl)-2-methylpropanoic acid] | 3.85% |
| [2H]C1([2H])c2cc(F)cc(COc3ccc(CC(C)C(=O)O)cc3)c2OC1(C)C (centres unmarked) [Example 145, 3-(4-((3,3-dideuterio-5-fluoro-2,2-dimethyl-2,3-dihydrobenzofuran-7-yl)methoxy)phenyl)-2-methylpropanoic acid] | 144% |
| CC(=O)Nc1cc(COc2ccc(CC(C)C(=O)O)cc2)c2c(c1)CC(C)(C)O2 (centres unmarked) [Example 123, 3-(4-((5-acetamido-2,2-dimethyl-2,3-dihydrobenzofuran-7-yl)methoxy)phenyl)-2-methylpropanoic acid] | 47% |
| CC(Cc1ccc(OCc2cc(Cl)cc3c2OCC3(C)C)cc1)C(=O)O (centres unmarked) [Example 148, 3-(4-((5-chloro-3,3-dimethyl-2,3-dihydrobenzofuran-7-yl)methoxy)phenyl)-2-methylpropanoic acid] | 114% |
| CC1(C)Cc2cc(Cl)cc(CNc3ccc(CCC(=O)O)cc3)c2O1 [Example 127, 3-(4-(((5-chloro-2,2-dimethyl-2,3-dihydrobenzofuran-7-yl)methyl)amino)phenyl) propanoic acid] | 153% |
| CC(Cc1ccc(OCc2cc(OC(F)(F)F)cc3c2OC(C)(C)C3)cc1)C(=O)O (centres unmarked) [Example 124, 3-(4-((2,2-dimethyl-5-(trifluoromethoxy)-2,3-dihydrobenzofuran-7-yl)methoxy)phenyl)-2-methylpropanoic acid] | 132% |
| CC1(C)Cc2cc(Cl)cc(COc3ccc4c(c3)CC[C@@H]4CC(=O)O)c2O1 [Example 179, (R)-2-(5-((5-chloro-2,2-dimethyl-2,3-dihydrobenzofuran-7-yl)methoxy)-2,3-dihydro-1H-inden-1-yl)acetic acid] | 105% |
| CC(Cc1ccc(OCc2cc(F)cc3c2OCOC3)cc1)C(=O)O (centres unmarked) [Example 45, 3-(4-((6-fluoro-4H-benzo[d][1,3]dioxin-8-yl)methoxy)phenyl)-2-methylpropanoic acid] | 79.6% |
| CC1(C)Cc2cc(Cl)cc(COc3cc(F)c(CCC(=O)O)c(F)c3)c2O1 [Example 54, 3-(4-((5-chloro-2,2-dimethyl-2,3-dihydrobenzofuran-7-yl)methoxy)-2,6-difluorophenyl)propanoic acid] | 139% |
| CC1(C)Cc2cc(F)cc(COc3ccc(CCCC(=O)O)cc3)c2O1 [Example 160, 4-(4-((5-fluoro-2,2-dimethyl-2,3-dihydrobenzofuran-7-yl)methoxy)phenyl)butanoic acid] | 172% |

Same assay, conditions: HEK293, % activity at 5 µM compared to the maximal activity of GW9508 at 6.7 µM (=100%); HEK293 cells co-expressing Gqi5; read-out: %Activity (GW9508 Reference Compound)

| Compound | activity at 5 µM |
| --- | --- |
| CC(Cc1cc(F)c(OCc2cccc3c2OCC3)c(F)c1)C(=O)O (centres unmarked) [Example 3, 3-(4-((2,3-dihydrobenzofuran-7-yl)methoxy)-3,5-difluorophenyl)-2-methylpropanoic acid] | 124% |
| COc1cc(CC(C)C(=O)O)ccc1OCc1cc(F)cc2c1OC(C)(C)C2 (centres unmarked) [Example 7, 3-(4-((5-fluoro-2,2-dimethyl-2,3-dihydrobenzofuran-7-yl)methoxy)-3-methoxyphenyl)-2-methylpropanoic acid] | 168% |
| CC1Cc2cccc(COc3c(F)cc(CCC(=O)O)cc3F)c2O1 (centres unmarked) [Example 20] | 138% |
| CC(Cc1ccc(OCc2cc(Cl)cc3c2OC(C)(C)C3)cc1Cl)C(=O)O (centres unmarked) [Example 26, 3-(2-chloro-4-((5-chloro-2,2-dimethyl-2,3-dihydrobenzofuran-7-yl)methoxy)phenyl)-2-methylpropanoic acid] | 164% |
| CC(Cc1ccc(OCc2cc(F)cc3c2OC(C)(C)C3)c(F)c1)C(=O)O (centres unmarked) [Example 8, 3-(3-fluoro-4-((5-fluoro-2,2-dimethyl-2,3-dihydrobenzofuran-7-yl)methoxy)phenyl)-2-methylpropanoic acid] | 135% |

Same assay, conditions: eight concentrations from 0.00001 to 20 µM; changes (Max-Min) of fluorescence intensity

| Compound | EC50 |
| --- | --- |
| CC(CCc1ccc(OCc2cc(F)cc3c2OC(C)(C)C3)cc1)C(=O)O (centres unmarked) [Example 171, 4-(4-((5-fluoro-2,2-dimethyl-2,3-dihydrobenzofuran-7-yl)methoxy)phenyl)-2-methylbutanoic acid] | 1 to 10 µM |
| CC(=O)Nc1cc(COc2ccc(CC(C)C(=O)O)cc2)c2c(c1)CC(C)(C)O2 (centres unmarked) [Example 123, 3-(4-((5-acetamido-2,2-dimethyl-2,3-dihydrobenzofuran-7-yl)methoxy)phenyl)-2-methylpropanoic acid] | 1 to 10 µM |
| CC(Cc1ccc(OCc2cc(OC(F)(F)F)cc3c2OC(C)(C)C3)cc1)C(=O)O (centres unmarked) [Example 124, 3-(4-((2,2-dimethyl-5-(trifluoromethoxy)-2,3-dihydrobenzofuran-7-yl)methoxy)phenyl)-2-methylpropanoic acid] | ≤ 1 µM |
| CC(Cc1ccc(OCc2cc(F)cc3c2OCOC3)cc1)C(=O)O (centres unmarked) [Example 45, 3-(4-((6-fluoro-4H-benzo[d][1,3]dioxin-8-yl)methoxy)phenyl)-2-methylpropanoic acid] | > 10 µM |

— patent EP2582674B1 (Cymabay Therapeutics, Inc., priority 2010, dated 2011)
